PubChem BioAssay AID248 (DTP/NCI, 2004)
Toxic doses and inconclusive results are not listed. Cut-off read from the data, not from the text of the source: active = T/C of 150% or more; inactive = T/C below 125%.

System: L1210 leukemia ip in BDF1 mice, survival T/C
Assay: NCI In Vivo Anticancer Drug Screen. Data for tumor model L1210 Leukemia (intraperitoneal) in B6D2F1 (BDF1) mice
Details: endpoint: mean survival time, higher = longer survival
Summary of the method: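 Transplanted-tumor mice were given test agent; controls received vehicle only. Survival readings from the two groups were divided (treated over control).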

[1] = dose: 100.0 mg/kg/injection, schedule: Q04DX003 (ip), vehicle: Klucel (hydroxypropylcellulose) (HPC)
[2] = dose: 100.0 mg/kg/injection, schedule: Q01DX001 (ip), vehicle: saline
[3] = dose: 200.0 mg/kg/injection, schedule: Q01DX001 (ip), vehicle: saline
[4] = dose: 100.0 mg/kg/injection, schedule: Q04DX002 (ip), vehicle: saline with Tween-80
[5] = dose: 200.0 mg/kg/injection, schedule: Q04DX002 (ip), vehicle: saline with Tween-80
[6] = dose: 400.0 mg/kg/injection, schedule: Q04DX002 (ip), vehicle: saline with Tween-80
[7] = dose: 100.0 mg/kg/injection, schedule: Q01DX001 (ip), vehicle: carboxymethylcellulose (CMC)
[8] = dose: 200.0 mg/kg/injection, schedule: Q04DX003 (ip), vehicle: Klucel (hydroxypropylcellulose) (HPC)
[9] = dose: 400.0 mg/kg/injection, schedule: Q04DX003 (ip), vehicle: Klucel (hydroxypropylcellulose) (HPC)
[10] = dose: 100.0 mg/kg/injection, schedule: Q01DX009 (ip), vehicle: Klucel (hydroxypropylcellulose) (HPC)
[11] = dose: 200.0 mg/kg/injection, schedule: Q01DX009 (ip), vehicle: Klucel (hydroxypropylcellulose) (HPC)
[12] = dose: 400.0 mg/kg/injection, schedule: Q01DX009 (ip), vehicle: Klucel (hydroxypropylcellulose) (HPC)
[13] = dose: 100.0 mg/kg/injection, schedule: Q04DX003 (ip), vehicle: saline
[14] = dose: 200.0 mg/kg/injection, schedule: Q04DX003 (ip), vehicle: saline
[15] = dose: 400.0 mg/kg/injection, schedule: Q04DX003 (ip), vehicle: saline

Measured: T/C

O=C(C[n+]1ccccc1)c1ccc(S(=O)(=O)c2ccccc2)cc1
inactive: dose: 12.5 mg/kg/injection, schedule: Q04DX003 (ip), vehicle: Klucel (hydroxypropylcellulose) (HPC) 95 % of control | dose: 25.0 mg/kg/injection, schedule: Q04DX003 (ip), vehicle: Klucel (hydroxypropylcellulose) (HPC) 93 % of control | dose: 50.0 mg/kg/injection, schedule: Q04DX003 (ip), vehicle: Klucel (hydroxypropylcellulose) (HPC) 89 % of control | [1] 94 % of control

O=C(O)c1csnn1
inactive: [2] 102 % of control | [3] 97 % of control | dose: 400.0 mg/kg/injection, schedule: Q01DX001 (ip), vehicle: saline 103 % of control

COc1ccc(/C=C2\N=C(c3cccc([N+](=O)[O-])c3)OC2=O)cc1OC
inactive: dose: 100.0 mg/kg/injection, schedule: Q04DX002 (ip), vehicle: Klucel (hydroxypropylcellulose) (HPC) 89 % of control | dose: 200.0 mg/kg/injection, schedule: Q04DX002 (ip), vehicle: Klucel (hydroxypropylcellulose) (HPC) 110 % of control | dose: 400.0 mg/kg/injection, schedule: Q04DX002 (ip), vehicle: Klucel (hydroxypropylcellulose) (HPC) 100 % of control

CC(=O)NC1CCCC(OC(C)=O)C1 (stereo not given)
inactive: dose: 50.0 mg/kg/injection, schedule: Q01DX009 (ip), vehicle: saline with Tween-80 88 % of control | dose: 100.0 mg/kg/injection, schedule: Q01DX009 (ip), vehicle: saline with Tween-80 91 % of control

CC(=O)OC1CCC2(C)C(CCC3C2CCC2(C)C(c4ccc(=O)oc4)C(OC(C)=O)CC32O)C1 (stereo not given)
inactive: dose: 1.0 mg/kg/injection, schedule: Q01DX001 (sc), vehicle: steriod suspending solution 96 % of control | dose: 2.0 mg/kg/injection, schedule: Q01DX001 (sc), vehicle: steriod suspending solution 98 % of control | dose: 4.0 mg/kg/injection, schedule: Q01DX001 (sc), vehicle: steriod suspending solution 93 % of control | dose: 8.0 mg/kg/injection, schedule: Q01DX001 (sc), vehicle: steriod suspending solution 109 % of control | dose: 12.0 mg/kg/injection, schedule: Q01DX001 (sc), vehicle: steriod suspending solution 98 % of control | dose: 16.0 mg/kg/injection, schedule: Q01DX001 (sc), vehicle: steriod suspending solution 101 % of control | dose: 32.0 mg/kg/injection, schedule: Q01DX001 (sc), vehicle: steriod suspending solution 108 % of control | dose: 64.0 mg/kg/injection, schedule: Q01DX001 (sc), vehicle: steriod suspending solution 103 % of control | dose: 128.0 mg/kg/injection, schedule: Q01DX001 (sc), vehicle: steriod suspending solution 111 % of control

CCOc1nc(N)nc2c1-c1ccc(OC)cc1CC2
inactive: [4] 91 % of control | [5] 102 % of control | [6] 87 % of control

CC(C)(C)c1cccc(C(=O)O)c1O
inactive: [7] 97 % of control | dose: 200.0 mg/kg/injection, schedule: Q01DX001 (ip), vehicle: carboxymethylcellulose (CMC) 97 % of control | dose: 400.0 mg/kg/injection, schedule: Q01DX001 (ip), vehicle: carboxymethylcellulose (CMC) 90 % of control

[O-]/[N+](=C\c1ccccc1)Cc1ccccc1
inactive: dose: 100.0 mg/kg/injection, schedule: Q04DX003 (ip), vehicle: carboxymethylcellulose (CMC) 94 % of control | dose: 200.0 mg/kg/injection, schedule: Q04DX003 (ip), vehicle: carboxymethylcellulose (CMC) 97 % of control

Cc1cccc(Cl)c1OCC(N)=O
inactive: [4] 111 % of control | [5] 103 % of control | [6] 111 % of control

COc1ccc(Cl)cc1NC(=O)OC/C=C/c1ccccc1
inactive: dose: 100.0 mg/kg/injection, schedule: Q01DX009 (ip), vehicle: gum acacia 96 % of control | dose: 200.0 mg/kg/injection, schedule: Q01DX009 (ip), vehicle: gum acacia 96 % of control | dose: 400.0 mg/kg/injection, schedule: Q01DX009 (ip), vehicle: gum acacia 87 % of control

Clc1ccccc1/C=C/c1ccccn1
inactive: dose: 6.25 mg/kg/injection, schedule: Q04DX002 (ip), vehicle: DMSO 102 % of control | dose: 12.5 mg/kg/injection, schedule: Q04DX002 (ip), vehicle: DMSO 98 % of control | dose: 25.0 mg/kg/injection, schedule: Q04DX002 (ip), vehicle: DMSO 109 % of control | dose: 100.0 mg/kg/injection, schedule: Q04DX002 (ip), vehicle: DMSO 94 % of control

CC1=CC(=O)C=CC1=O
inactive: dose: 5.0 mg/kg/injection, schedule: Q01DX001 (ip), vehicle: saline 107 % of control

O=C1C=Cc2c(ccc3c4c(ccc23)=CC(=O)C=C4)=C1
inactive: dose: 100.0 mg/kg/injection, schedule: Q01DX001 (ip), vehicle: saline with Tween-80 88 % of control | dose: 200.0 mg/kg/injection, schedule: Q01DX001 (ip), vehicle: saline with Tween-80 90 % of control | dose: 400.0 mg/kg/injection, schedule: Q01DX001 (ip), vehicle: saline with Tween-80 90 % of control

Cc1cc(N(CCCCl)CCCCl)ccc1C=Nc1cc(Br)c(O)c(Br)c1
inactive: [1] 94 % of control | [8] 95 % of control | [9] 96 % of control

CCC[CH2][Sn]([CH2]CCC)([n]1cncn1)[n]1cncn1
inactive: dose: 3.13 mg/kg/injection, schedule: Q04DX003 (ip), vehicle: saline with Tween-80 101 % of control | dose: 6.25 mg/kg/injection, schedule: Q04DX002 (ip), vehicle: saline with Tween-80 104 % of control | dose: 6.25 mg/kg/injection, schedule: Q04DX003 (ip), vehicle: saline with Tween-80 101 % of control | dose: 12.5 mg/kg/injection, schedule: Q04DX002 (ip), vehicle: saline with Tween-80 104 % of control | dose: 12.5 mg/kg/injection, schedule: Q04DX003 (ip), vehicle: saline with Tween-80 95 % of control | dose: 25.0 mg/kg/injection, schedule: Q04DX002 (ip), vehicle: saline with Tween-80 93 % of control

CN1c2ccccc2C=C(C(=O)c2ccccc2)C1c1ccccc1 (stereo not given)
inactive: dose: 50.0 mg/kg/injection, schedule: Q01DX001 (ip), vehicle: saline 100 % of control | [2] 102 % of control | [3] 97 % of control

O=C(Nc1ccccc1)OC1CCCC2CCCCC21 (stereo not given)
inactive: [1] 96 % of control | [8] 96 % of control | [9] 93 % of control

CN(C)CCCNC(=S)S
inactive: dose: 6.0 mg/kg/injection, schedule: Q01DX009 (ip), vehicle: saline 106 % of control | dose: 12.0 mg/kg/injection, schedule: Q01DX009 (ip), vehicle: saline 100 % of control | dose: 25.0 mg/kg/injection, schedule: Q01DX009 (ip), vehicle: saline 111 % of control

COc1ccc2c(c1)CCC1=C2CCC2C(=O)OC(=O)C12C (stereo not given)
inactive: [10] 98 % of control | [1] 90 % of control | [11] 95 % of control | [8] 98 % of control | [12] 101 % of control | [9] 97 % of control

CC(=O)OC1=CC(=O)c2ccccc2C1=O
inactive: dose: 5.0 mg/kg/injection, schedule: Q01DX001 (ip), vehicle: carboxymethylcellulose (CMC) 101 % of control | dose: 10.0 mg/kg/injection, schedule: Q01DX001 (ip), vehicle: carboxymethylcellulose (CMC) 101 % of control | dose: 20.0 mg/kg/injection, schedule: Q01DX001 (ip), vehicle: carboxymethylcellulose (CMC) 101 % of control | dose: 40.0 mg/kg/injection, schedule: Q01DX001 (ip), vehicle: carboxymethylcellulose (CMC) 107 % of control | dose: 80.0 mg/kg/injection, schedule: Q01DX001 (ip), vehicle: carboxymethylcellulose (CMC) 107 % of control | [7] 104 % of control

CCOC(=O)CCCSCCCC(=O)OCC
inactive: dose: 100.0 mg/kg/injection, schedule: Q01DX009 (ip), vehicle: saline 111 % of control | [13] 111 % of control | dose: 200.0 mg/kg/injection, schedule: Q01DX009 (ip), vehicle: saline 101 % of control | [14] 98 % of control | dose: 400.0 mg/kg/injection, schedule: Q01DX009 (ip), vehicle: saline 110 % of control | [15] 88 % of control

OCC1=C(CO)C2(Cl)C(Cl)=C(Cl)C1(Cl)C2(Cl)Cl
inactive: [10] 100 % of control | [13] 105 % of control | [11] 105 % of control | [14] 100 % of control | [12] 88 % of control | [15] 98 % of control
